Results taken from patent US20230085307A1, “PYRIDAZINONE COMPOUND AND HERBICIDE” (NISSAN CHEMICAL CORPORATION, priority 2019, published 2023).

Experiments:
[1] = test system: late watergrass; assay: Test Example 1: herbicidal activity, application before weed generation under submerged conditions (Table 16, symbol A); type: in vivo, late watergrass (Echinochloa oryzicola); settings: amount of applied herbicide 320 g/ha
Source text: (§1) [Test Example 1] Herbicidal Activity Test by Application before Weed Generation under Submerged Conditions After alluvial soil was placed into 1/10000 are of Wagner pot, water was poured and mixed to form a submerged condition having a water depth of 4 cm. Seeds of late watergrass, Japanese bulrush, and oval-leafed pondweed were sowed in a mixed manner in the aforementioned pot, and then 2.5 leaf stage rice plant seedlings were transplanted thereto. On the day of sowing seeds, the emulsion agent of the compound of the present invention prepared according to Formulation Example 2 was diluted with water so as to achieve a predetermined herbicide amount, and the diluted emulsion agent was applied to the surface of the water. The pot was placed in a greenhouse at 25° C. to 30° C. for growth of the plants. Three weeks after the herbicide application, the effect of the herbicide on each plant was evaluated according to the following criteria. Evaluation Criteria 5: Herbicidal rate of 90% or more (almost completely withered) 4: Herbicidal rate of 70% or more and less than 90% 3: Herbicidal rate of 40% or more and less than 70% 2: Herbicidal rate of 20% or more and less than 40% 1: Herbicidal rate of 5% or more and less than 20% 0: Herbicidal rate of 5% or less (almost no effect)

[2] = test system: Japanese bulrush; assay: Test Example 1: herbicidal activity, application before weed generation under submerged conditions (Table 16, symbol B); type: in vivo, Japanese bulrush (Schoenoplectus juncoides); settings: amount of applied herbicide 320 g/ha
How it was run: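 Alluvial soil was flooded to 4 cm depth, weed seeds were sown mixed and 2.5-leaf rice seedlings were transplanted. On sowing day, the compound's emulsion, diluted in water to a set dose, was applied to the water surface. Plants grew at 25–30 °C and were scored 0–5 after three weeks.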

[3] = test system: oval-leafed pondweed; assay: Test Example 1: herbicidal activity, application before weed generation under submerged conditions (Table 16, symbol C); type: in vivo, oval-leafed pondweed (Monochoria vaginalis); settings: amount of applied herbicide 320 g/ha
Source text: as §1

[4] = test system: barnyard grass; assay: Test Example 3: herbicidal effect by foliage application, Wagner pot (Table 18, symbol H); type: in vivo, barnyard grass (Echinochloa crus-galli); settings: for herbicidal effect on barnyard grass (H): 320 g/ha
How it was run: (§2)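 Plants were sown in alluvial soil held under 0.1–0.5 cm standing water and grown 14 days in a greenhouse at 25–30 °C. An emulsifiable formulation, water-diluted to the set dose, was then sprayed onto the foliage, and effects were scored three weeks later using previously defined criteria.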

[5] = test system: Chinese sprangletop; assay: Test Example 3: herbicidal effect by foliage application, Wagner pot (Table 18, symbol D); type: in vivo, chinese sprangletop (Leptochloa chinensis); settings: for herbicidal effect on Chinese sprangletop (D): 320 g/ha
How it was run: as §2

[6] = test system: rice flat sedge; assay: Test Example 3: herbicidal effect by foliage application, Wagner pot (Table 18, symbol E); type: in vivo, rice flat sedge (Cyperus iria); settings: for herbicidal effect on rice flat sedge (E): 320 g/ha
How it was run: as §2

[7] = test system: southern crabgrass; assay: Test Example 4: herbicidal effect by soil treatment (Table 19, symbol F); type: in vivo, southern crabgrass (Digitaria ciliaris); settings: amount of applied herbicide 320 g/ha
How it was run: (§3)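 Applied as a water-diluted emulsion, the compound was sprayed onto soil covering newly sown seeds. Evaluation came three weeks after application, in a greenhouse held at 25° C. to 30° C.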

[8] = test system: green foxtail; assay: Test Example 4: herbicidal effect by soil treatment (Table 19, symbol G); type: in vivo, green foxtail (Setaria viridis); settings: amount of applied herbicide 320 g/ha
How it was run: as §3

[9] = test system: barnyard grass; assay: Test Example 4: herbicidal effect by soil treatment (Table 19, symbol H); type: in vivo, barnyard grass (Echinochloa crus-galli); settings: amount of applied herbicide 320 g/ha
How it was run: as §3

[10] = test system: velvetleaf; assay: Test Example 4: herbicidal effect by soil treatment (Table 19, symbol M); type: in vivo, velvetleaf (Abutilon theophrasti); settings: amount of applied herbicide 320 g/ha
How it was run: as §3

[11] = test system: redroot pigweed; assay: Test Example 4: herbicidal effect by soil treatment (Table 19, symbol N); type: in vivo, redroot pigweed (Amaranthus retroflexus); settings: amount of applied herbicide 320 g/ha
How it was run: as §3

[12] = test system: lambsquarters; assay: Test Example 4: herbicidal effect by soil treatment (Table 19, symbol O); type: in vivo, lambsquarters (Chenopodium album); settings: amount of applied herbicide 320 g/ha
How it was run: as §3

[13] = test system: southern crabgrass; assay: Test Example 5: herbicidal effect by foliage application, plastic box (Table 20, symbol F); type: in vivo, southern crabgrass (Digitaria ciliaris); settings: foliage application, 320 g/ha, three weeks after application
How it was run: (§4)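 Sow seeds spot-wise in sterilized diluvial soil; cover with ~1.5 cm soil. Grow 14 days in greenhouse, 25° C. to 30° C. Spray foliage with emulsion diluted to predetermined amount. Rate effect after 3 weeks.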

[14] = test system: green foxtail; assay: Test Example 5: herbicidal effect by foliage application, plastic box (Table 20, symbol G); type: in vivo, green foxtail (Setaria viridis); settings: foliage application, 320 g/ha, three weeks after application
How it was run: as §4

[15] = test system: barnyard grass; assay: Test Example 5: herbicidal effect by foliage application, plastic box (Table 20, symbol H); type: in vivo, barnyard grass (Echinochloa crus-galli); settings: foliage application, 320 g/ha, three weeks after application
How it was run: as §4

[16] = test system: velvetleaf; assay: Test Example 5: herbicidal effect by foliage application, plastic box (Table 20, symbol M); type: in vivo, velvetleaf (Abutilon theophrasti); settings: foliage application, 320 g/ha, three weeks after application
How it was run: as §4

[17] = test system: redroot pigweed; assay: Test Example 5: herbicidal effect by foliage application, plastic box (Table 20, symbol N); type: in vivo, redroot pigweed (Amaranthus retroflexus); settings: foliage application, 320 g/ha, three weeks after application
How it was run: as §4

[18] = test system: lambsquarters; assay: Test Example 5: herbicidal effect by foliage application, plastic box (Table 20, symbol O); type: in vivo, lambsquarters (Chenopodium album); settings: foliage application, 320 g/ha, three weeks after application
How it was run: as §4

[19] = amount of applied herbicide 320 g/ha

Structure (SMILES): Cc1nn(C)c(=O)c(-c2c(-c3ccc(OCC[S+](C)[O-])cc3)sc3ccc(F)cc23)c1O (centres unmarked) [2-443]
- Herbicidal effect, A: late watergrass [1]: 3 (Herbicidal rate of 40% or more and less than 70%)
- Herbicidal effect, B: Japanese bulrush [2]: 0 (Herbicidal rate of 5% or less (almost no effect))
- Herbicidal effect, C: oval-leafed pondweed [3]: 0 (Herbicidal rate of 5% or less (almost no effect))
- herbicidal effect on H: barnyard grass [4, 19]: 5 (Herbicidal rate of 90% or more (almost completely withered))
- herbicidal effect on D: Chinese sprangletop [5, 19]: 4 (Herbicidal rate of 70% or more and less than 90%)
- herbicidal effect on E: rice flat sedge [6, 19]: 5 (Herbicidal rate of 90% or more (almost completely withered))
- herbicidal effect, F: southern crabgrass [7]: 5 (Herbicidal rate of 90% or more (almost completely withered))
- herbicidal effect, G: green foxtail [8]: 5 (Herbicidal rate of 90% or more (almost completely withered))
- herbicidal effect, H: barnyard grass [9]: 5 (Herbicidal rate of 90% or more (almost completely withered))
- herbicidal effect, M: velvetleaf [10]: 3 (Herbicidal rate of 40% or more and less than 70%)
- herbicidal effect, N: redroot pigweed [11]: 5 (Herbicidal rate of 90% or more (almost completely withered))
- herbicidal effect, O: lambsquarters [12]: 4 (Herbicidal rate of 70% or more and less than 90%)
- F: southern crabgrass, herbicidal effect grade [13]: 5 (Herbicidal rate of 90% or more (almost completely withered))
- G: green foxtail, herbicidal effect grade [14]: 5 (Herbicidal rate of 90% or more (almost completely withered))
- H: barnyard grass, herbicidal effect grade [15]: 5 (Herbicidal rate of 90% or more (almost completely withered))
- M: velvetleaf, herbicidal effect grade [16]: 5 (Herbicidal rate of 90% or more (almost completely withered))
- N: redroot pigweed, herbicidal effect grade [17]: 5 (Herbicidal rate of 90% or more (almost completely withered))
- O: lambsquarters, herbicidal effect grade [18]: 5 (Herbicidal rate of 90% or more (almost completely withered))

Structure (SMILES): Cc1nn(C)c(=O)c(-c2c(-c3ccc(Cl)cc3)sc3cc(F)c(F)cc23)c1OCc1ccccc1 [5-083]
- Herbicidal effect, A: late watergrass [1]: 0 (Herbicidal rate of 5% or less (almost no effect))
- Herbicidal effect, B: Japanese bulrush [2]: 3 (Herbicidal rate of 40% or more and less than 70%)
- Herbicidal effect, C: oval-leafed pondweed [3]: 0 (Herbicidal rate of 5% or less (almost no effect))
- herbicidal effect on barnyard grass (H) [4]: 1 (Herbicidal rate of 5% or more and less than 20%)
- herbicidal effect on Chinese sprangletop (D) [5]: 0 (Herbicidal rate of 5% or less (almost no effect))
- herbicidal effect on rice flat sedge (E) [6]: 2 (Herbicidal rate of 20% or more and less than 40%)

Structure (SMILES): Cc1nn(C)c(=O)c(-c2c(-c3ccc(OC(F)(F)F)cc3)sc3cc(F)c(F)cc23)c1O [5-105]
- Herbicidal effect, A: late watergrass [1]: 2 (Herbicidal rate of 20% or more and less than 40%)
- Herbicidal effect, B: Japanese bulrush [2]: 0 (Herbicidal rate of 5% or less (almost no effect))
- Herbicidal effect, C: oval-leafed pondweed [3]: 0 (Herbicidal rate of 5% or less (almost no effect))
- herbicidal effect on barnyard grass (H) [4]: 5 (Herbicidal rate of 90% or more (almost completely withered))
- herbicidal effect on Chinese sprangletop (D) [5]: 0 (Herbicidal rate of 5% or less (almost no effect))
- herbicidal effect on rice flat sedge (E) [6]: 0 (Herbicidal rate of 5% or less (almost no effect))
- F: southern crabgrass, herbicidal effect grade [7]: 0 (Herbicidal rate of 5% or less (almost no effect))
- G: green foxtail, herbicidal effect grade [8]: 0 (Herbicidal rate of 5% or less (almost no effect))
- H: barnyard grass, herbicidal effect grade [9]: 0 (Herbicidal rate of 5% or less (almost no effect))
- M: velvetleaf, herbicidal effect grade [10]: 2 (Herbicidal rate of 20% or more and less than 40%)
- N: redroot pigweed, herbicidal effect grade [11]: 3 (Herbicidal rate of 40% or more and less than 70%)
- O: lambsquarters, herbicidal effect grade [12]: 4 (Herbicidal rate of 70% or more and less than 90%)
- herbicidal effect on southern crabgrass (F) [13]: 4 (Herbicidal rate of 70% or more and less than 90%)
- herbicidal effect on green foxtail (G) [14]: 5 (Herbicidal rate of 90% or more (almost completely withered))
- herbicidal effect on barnyard grass (H) [15]: 5 (Herbicidal rate of 90% or more (almost completely withered))
- herbicidal effect on velvetleaf (M) [16]: 4 (Herbicidal rate of 70% or more and less than 90%)
- herbicidal effect on lambsquarters (O) [18]: 5 (Herbicidal rate of 90% or more (almost completely withered))
